Data reported in patent US9315816B2, “Method for rapidly developing gene switches and gene circuits” (National University Corporation Chiba University, priority 2010, dated 2016).

How the values were obtained:
[1] = tested on: TK-deficient E. coli strain in which hsvTK was expressed (hsvTK+); test: ON selection: 5FdU concentration vs viable cell count, hsvTK+; format: cell-based, Escherichia coli
Protocol: With the TK-deficient strain of E. coli JW1226, a human herpes virus derived thymidine kinase (hsvTK) was expressed by transfecting pTrc-hsvtk (FIG. 3), and a relationship between the concentration of 5FdU and the survival rate of cells (viable cell count) was investigated.
First, JW1226 cells transfected with pTrc-hsvtk were diluted with 1 mL of positive selection medium so as to achieve an OD600 of 0.002 (approximately 10^6 cells/mL), and cultured at 37° C. for 12 hours while being rotated at 200 rpm. The positive selection medium used was medium containing tryptone at 2% w/v, NaCl at 0.5% w/v, dT at 10 μg/mL, adenosine at 1 μg/mL, and 5FdU at 0 to 25 μg/mL. After the culture, a portion of the resultant culture was collected and inoculated in an LB plate containing ampicillin, and the number of colonies grown was counted as a viable cell count.

[2] = tested on: TK-deficient E. coli strain in which hsvTK was not expressed (hsvTK−); test: ON selection: 5FdU concentration vs viable cell count, hsvTK−; format: cell-based, Escherichia coli; conditions: 5FdU 0 to 25 μg/mL, 12 hours
[3] = tested on: E. coli MV2157 switch strains with selector plasmid Ver. 2; test: Enrichment efficiency by dual selection, Circuit-B:C:D = 1:100:100; format: cell-based, Escherichia coli; conditions: 0.4% MMS, 30 minutes, approximately 10^6 cells/mL
Protocol: Next, enrichment efficiency by dual selection was evaluated. Selector plasmid Ver. 2 (FIG. 13-B) was used as a selector plasmid, and the following three kinds of model genetic circuits were used: Circuit-B; Circuit-C; and Circuit-D (see FIGS. 2-B, 2-C, and 2-D). The selector plasmid and one kind of model genetic circuit were transfected into E. coli MV2157. Each switch strain was inoculated in 2 mL of LB medium containing AHL, and cultured at 37° C. for 12 hours. Next, the switch strains having Circuit-B, Circuit-C, or Circuit-D were mixed at an abundance ratio of 1:100:100 in terms of OD. The mixed cell population was subjected to OFF selection by the same method as above, and then cultured at 37° C. for 2 hours. The cells were harvested by centrifugation, the medium was exchanged for M9 minimal medium, MMS was added at a concentration of 0.2%, 0.3%, or 0.4%, and the whole was left to stand still at 37° C. for 30 minutes (ON selection). After that, the medium was exchanged for LB medium, culture was conducted for 12 hours, and plasmids were extracted from the culture solution. The plasmids were transformed together with pλ-gfp into XL10-GOLD™ ultracompetent cells (Agilent Technologies). After that, the transformed cells were inoculated in solid media supplemented and not supplemented with AHL, and the numbers of cells expressing GFP were compared. […]

[4] = tested on: alkylating agent-sensitive E. coli strain MV2157; test: ON-selector function of AAG gene: survival rate under MMS; format: cell-based, Escherichia coli
Protocol: The ON-selector function of the AAG gene was studied. First, alkylating agent-sensitive E. coli strains MV2157 were separately transfected with plasmids containing AAG and variants thereof, specifically, pTrc-aag (WT), pTrc-aag (E125A), and pTrc-aag-ape1 prepared in Example 1, and were compared for their survival rates in the presence/absence of MMS. The E. coli strain transfected with pTrc-aag (E125A) was used as a negative control.
Next, 1 μL of culture was inoculated in LB liquid medium, and cultured at 37° C. for 3 hours. MMS was added at a final concentration of 0 to 40 mM, and culture was conducted at 37° C. for 15 to 60 minutes. […] A value obtained by dividing the viable cell count of the sample to which MMS had been added by the viable cell count of the sample to which MMS had not been added was defined as a survival rate.

[5] = tested on: E. coli MV2157 transfected with selector plasmid Ver. 2 and Circuit-C or Circuit-D; test: ON selection of genetic circuit with selector plasmid Ver. 2 under MMS; format: cell-based, Escherichia coli
Protocol: First, E. coli MV2157 transfected with selector plasmid Ver. 2 and Circuit-C (referred to as “ON strain” in Example 3), and E. coli MV2157 transfected with selector plasmid Ver. 2 and […] (referred to as “OFF strain” in Example 3) were prepared. […] The cell density at the time of the MMS treatment is approximately 10^8 cells/mL. […] A value obtained by dividing the viable cell count of the sample to which MMS had been added by the viable cell count of the sample to which MMS had not been added was defined as a survival rate.
Next, time-dependent changes in the survival rates of the ON strain and the OFF strain when MMS was added at 0.2% were investigated. In this case, an ON strain transfected with pTrc-ape1 was prepared and similarly studied for comparison. Culture and treatment with MMS of each strain of E. coli were conducted by similar methods to the methods in the foregoing.

E. coli cell population = conditions: 37 μM dP; cited from earlier work
[6] = tested on: TK-deficient E. coli strain transfected with a control plasmid pTrc99A (hsvTK−); test: OFF selection: dP concentration vs viable cell count, hsvTK− control; format: cell-based, Escherichia coli; conditions: dP 0 to 100 nM, 12 hours
[7] = tested on: TK-deficient cells transfected with pTrc-hsvtk constantly expressing hsvTK; test: Rapidity of OFF selection (dP shock); format: cell-based, Escherichia coli; conditions: dP 1 μM; 5, 30 or 60 minutes
Protocol: First, TK-deficient cells transfected with pTrc-hsvtk (FIG. 3) so as to constantly express hsvTK were cultured under shaking at 37° C. and 200 rpm until an OD of 0.05 (approximately 3×10^7 cells/mL) was achieved. The resultant was dispensed at 1 mL each, dP was added (final concentration: 1 μM), and culture was continued at 37° C. After a lapse of 5, 30, or 60 minutes, 20 μL of the culture (approximately 10^6 cells) were collected and inoculated in an LB plate containing ampicillin, and the number of colonies grown was counted as a viable cell count.

[8] = tested on: TK-deficient E. coli strain JW1226 in which hsvTK was expressed (hsvTK+); test: OFF selection: dP concentration vs viable cell count, hsvTK+; format: cell-based, Escherichia coli; conditions: dP 0 to 100 nM, 12 hours
Protocol: With the TK-deficient E. coli strain JW1226, human herpes virus derived thymidine kinase (hsvTK) was expressed by transfecting pTrc-hsvtk (FIG. 3), and a relationship between the concentration of dP and the survival rate of cells (viable cell count) was investigated.
First, JW1226 cells transfected with pTrc-hsvtk were cultured in 2 mL of LB medium containing 100 μg/mL of ampicillin at 37° C. overnight. Next, the culture was diluted with 1 mL of fresh LB medium containing dP (at a final concentration of 0 to 100 nM) 1,000-fold (10^6 cells/mL), and stirred and shaken at 37° C. for 12 hours. After the culture, the cells were seeded on an LB-agar (1.5% w/v) plate containing ampicillin at 100 μg/mL. After incubation at 37° C. for 12 hours, the number of colonies grown was counted as a viable cell count.

For `O=c1[nH]c(=O)n([C@H]2C[C@H](O)[C@@H](CO)O2)cc1F` [5FdU, 5-fluoro-2′-deoxyuridine], the viable cell count ([1]; 5FdU 0 to 25 μg/mL, 12 hours, hsvTK+) was “decreased at a slow rate”, the “survival rate of hsvTK+ as compared to hsvTK−” value ([1]; 5FdU 25 μg/mL) was 4.8×10^7 fold and the viable cell count [2] was “decreased with increasing concentrations of 5FdU”.
For `CS(=O)(=O)O` [MMS, methanesulfonic acid], the “cell survival in ON selection” value [3] was “all the cells were killed”, the “survival rates of cells expressing AAG” value ([4]; MMS 20 mM, 60 minutes) was “significantly decreased” and the “enrichment of cells expressing AAG” value ([4]; MMS treatment 15 to 60 minutes) was ~1,000 fold. For the same molecule, the “survival of all the strains” value ([4]; MMS ~40 mM) was “mostly died off”, the “survival rate of OFF strain (AAG not expressed)” value ([5]; MMS 0.2-0.4%, 15 to 60 minutes) was “significantly decreased” and the “survival rate of ON strain (AAG expressed)” value ([5]; MMS 0.2-0.4%, 15 to 60 minutes) was “only slightly reduced”. For the same molecule, the “difference in survival rate between the OFF strain and the ON strain” value ([5]; MMS 0.4%, 30 minutes) was ≥ 10^4 fold.
For `O=C1NC2=NOCCC2=CN1[C@H]1C[C@H](O)[C@@H](CO)O1` [dP, 6-(β-D-2-Deoxyribo-furanosyl)-3,4-dihydro-8H-pyrimido[4,5-c][1,2]oxazin-7-one], the “fraction of E. coli cell population killed” value (E. coli cell population) is listed as 80%, the survival rate [6] is listed as “no reduction in survival rate” and the “viable cell count after dP shock” value [7] is listed as “almost zero”. For the same molecule, the viable cell count [8] was “significantly decreased in a dP concentration-dependent manner”.
In the case of “pTrc-aag (WT): ON-selector plasmid containing a wild-type AAG gene”, the MMS resistance ([4]; 3-methyladenine repair enzyme-deficient strain) was “acquisition of MMS resistance has been confirmed”.
